The source of these data is ChEMBL document CHEMBL1142943, “Homology modeling of human Fyn kinase structure: discovery of rosmarinic acid as a new Fyn kinase inhibitor and in silico study of its possible binding modes” (J Med Chem, 2007).

The target in assay [1] is T1, Tyrosine-protein kinase Fyn (Homo sapiens, UniProt P06241). Briefly: Inhibition of human Fyn expressed in Sf9 cells after 1 min by ELISA in presence of 1 umol/L ATP. A general note: In an ELISA, binding on a coated surface is turned into a signal by an enzyme label.
T1 sequence (P06241 whole entry): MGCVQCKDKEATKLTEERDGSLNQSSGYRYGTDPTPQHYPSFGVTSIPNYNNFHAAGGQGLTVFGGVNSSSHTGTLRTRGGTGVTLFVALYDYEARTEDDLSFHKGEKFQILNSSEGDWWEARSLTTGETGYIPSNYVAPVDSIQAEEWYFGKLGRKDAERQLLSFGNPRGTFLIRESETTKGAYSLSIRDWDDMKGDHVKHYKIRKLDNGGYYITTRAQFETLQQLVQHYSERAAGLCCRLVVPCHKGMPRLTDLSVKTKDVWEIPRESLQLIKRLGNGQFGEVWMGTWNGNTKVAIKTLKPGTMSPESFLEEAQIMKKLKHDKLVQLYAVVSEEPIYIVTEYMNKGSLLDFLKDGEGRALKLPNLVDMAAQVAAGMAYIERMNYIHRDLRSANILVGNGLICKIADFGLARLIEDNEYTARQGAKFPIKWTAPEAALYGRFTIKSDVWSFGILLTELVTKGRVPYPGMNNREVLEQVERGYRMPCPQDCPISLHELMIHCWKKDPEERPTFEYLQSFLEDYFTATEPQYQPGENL
Assay [2] concerns the target T1, Tyrosine-protein kinase Fyn. Description: Inhibition of human Fyn expressed in Sf9 cells at 30 umol/L by ELISA.
The target is the same in assay [3]. Briefly: Inhibition of human Fyn expressed in Sf9 cells after 1 min by ELISA in presence of 10 umol/L ATP.
Assay [4] shares this target. Description: Inhibition of human Fyn expressed in Sf9 cells after 1 min by ELISA in presence of 100 umol/L ATP.
For assay [5] the target is unchanged. Description: Inhibition of human Fyn expressed in Sf9 cells after 20 mins by ELISA in presence of 10 umol/L ATP.
The target is the same in assay [6]. Briefly: Inhibition of human Fyn expressed in Sf9 cells at 10 umol/L by ELISA.
Assay [7] has the same target. Briefly: Inhibition of human Fyn expressed in Sf9 cells after 20 mins by ELISA in presence of 1 umol/L ATP.
For assay [8] the target is unchanged. Briefly: Inhibition of human Fyn expressed in Sf9 cells after 20 mins by ELISA in presence of 100 umol/L ATP.

The term IC50 denotes the concentration that gives 50% inhibition. As a reminder, the Ki is the equilibrium dissociation constant of an inhibitor or competing ligand from its target. A low value points to tighter binding. As to `O=C(/C=C/c1ccc(O)c(O)c1)O[C@H](Cc1ccc(O)c(O)c1)C(=O)O` [ROSMARINIC ACID], the IC50 in assay [1] came to 36 µM; in assay [3], 74 µM; in assay [4], 63 µM; in assay [5] it was 3.6 µM; in assay [7], 1.3 µM; in assay [8], 17 µM. The Ki in assay [2] came out at 10.2 µM; in assay [6], 7.5 µM.
